Drawing on US20260224536A1, “ARYL HETEROCYCLIC KV1.3 INHIBITOR, PREPARATION METHOD THEREFOR, AND USE THEREOF” (SHANGHAI SHENSHI WISE TECHNOLOGY CO., LTD., priority 2022, published 2026), this text covers IC50 for 32 compounds.

The test concerns the target Kv1.3 potassium channel (Homo sapiens, UniProt P22001). Description: Whole-cell patch-clamp assay for inhibitory activity against Kv1.3 (peak current). The class given is cell-based. The conditions noted are these: HEK293 cells stably expressing Kv1.3, patch-clamp. From the text:
The voltage stimulation protocol for recording whole-cell Kv1.X potassium currents via patch-clamp was as follows. After formation of a whole-cell seal, the cell membrane voltage was clamped at −80 mV, and then stepped to +40 mV for 500 ms. […] The test data were acquired by EPC-10 amplifier (HEKA) and stored in the PatchMaster (HEKA) software. Recording electrodes were drawn from capillary glass tubes using a microelectrode puller. Under an inverted microscope, the recording electrode was brought into contact with the cell surface by manipulating a microelectrode manipulator. Negative-pressure suction was applied to form a GΩ seal. After formation of the […], a rapid capacitance compensation was given. The application of negative pressure was continued to rupture the cell membrane, forming a whole-cell recording mode. Then, a slow capacitance compensation was given, and the membrane capacitance and series resistance were recorded. No current leakage compensation was provided. Once the whole-cell recorded Kv1.X current stabilized, drug administration was started. Each drug concentration was allowed to act for 5 min (or until the current reached a steady state) before the next concentration was tested. Multiple concentrations were tested for each test compound. The cover glass plated with the cells was placed in a recording bath of the inverted microscope. The test compound and the compound-free extracellular fluid were allowed to sequentially flow through the recording bath from low concentrations to high concentrations using a gravity perfusion method, thus acting on the cells, and liquid exchange was performed using a vacuum pump during recording. For each cell, the current detected in the compound-free extracellular liquid was used as its own control group. The test was independently repeated three times using at least three cells per concentration. All electrophysiological experiments were performed at room temperature. […] First, the peak current after the action of each drug concentration and the peak current of the blank control were standardized and then the inhibition rate corresponding to each drug concentration was calculated Subsequently, the mean, standard deviation (SD), and standard error (SE) were calculated for the inhibition rate corresponding to each concentration. Using the above equation, the IC50 value for each compound was calculated, and the dose-dependent effect was subjected to non-linear fitting, where IC50 is the half maximal inhibitory concentration. The IC50 calculation and the curve fitting were performed using the GraphPad Prism software.
On the technique in general: The patch-clamp technique gives a direct electrical read-out from membranes.

Kv1.3 potassium channel, sequence (P22001 whole entry): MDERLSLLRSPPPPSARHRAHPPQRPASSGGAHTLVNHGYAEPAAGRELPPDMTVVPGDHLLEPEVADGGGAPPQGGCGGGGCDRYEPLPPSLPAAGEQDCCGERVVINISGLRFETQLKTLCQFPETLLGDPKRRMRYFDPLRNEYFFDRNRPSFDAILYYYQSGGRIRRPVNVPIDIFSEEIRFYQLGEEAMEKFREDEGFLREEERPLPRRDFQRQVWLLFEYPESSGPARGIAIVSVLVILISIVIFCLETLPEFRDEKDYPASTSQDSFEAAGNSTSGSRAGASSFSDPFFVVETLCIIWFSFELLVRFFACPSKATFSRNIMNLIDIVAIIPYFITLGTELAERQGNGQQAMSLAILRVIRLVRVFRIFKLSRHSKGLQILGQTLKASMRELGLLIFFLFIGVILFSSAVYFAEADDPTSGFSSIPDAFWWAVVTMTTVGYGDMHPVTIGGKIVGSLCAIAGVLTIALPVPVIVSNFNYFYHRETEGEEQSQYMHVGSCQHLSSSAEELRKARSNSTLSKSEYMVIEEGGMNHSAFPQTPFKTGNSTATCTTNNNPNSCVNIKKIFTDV

In general, IC50 refers to the midpoint of a concentration-inhibition curve. Consider `Oc1ccc(Cl)c(Cl)c1[C@@H]1Cc2nnc([C@H]3C[C@H]4CC[C@@H]3O4)n2C1` [Example 60, 2-((S)-3-((1S,2R,4R)-7-Oxabicyclo[2.2.1]heptan-2-yl)-6,7-dihydro-5H-pyrrolo[2,1-c][1,2,4]triazol-6-yl)-3,4-dichlorophenol], for which 27.6 nM corresponded to half-maximal inhibition (IC50).

In turn, `C[C@]1(c2nnc3n2C[C@H](c2c(O)ccc(Cl)c2Cl)C3)CCOC1` [Example 65, 3,4-dichloro-2-((S)-3-((R)-3-methyltetrahydrofuran-3-yl)-6,7-dihydro-5H-pyrrolo[2,1-c][1,2,4]triazol-6-yl)phenol] came in with an IC50 of 51.7 nM.

Turning to `CC(C)N1CCN(C(=O)c2cnc3n2C[C@H](c2c(O)ccc(Cl)c2Cl)C3)CC1` [Example 121, (S)-(6-(2,3-Dichloro-6-hydroxyphenyl)-6,7-dihydro-5H-pyrrolo[1,2-a]imidazol-3-yl)(4-isopropylpiperazin-1-yl)methanone], the midpoint of inhibition, the IC50, lay at 9.68 nM.

Compound `Oc1ccc(Cl)c(Cl)c1C1Cc2nnc(-c3ccc4[nH]ncc4c3)n2C1` (centres unmarked) [Example 7, 2-(3-(1H-Indazol-5-yl)-6,7-dihydro-5H-pyrrolo[2,1-c][1,2,4]triazol-6-yl)-3,4-dichlorophenol] showed an IC50 of 12 nM.

Turning to `CC(C)N1CCC(Cc2nnc3n2CC(c2c(O)ccc(Cl)c2Cl)C3)CC1` (centres unmarked) [Example 18, 3,4-Dichloro-2-(3-((1-isopropylpiperidin-4-yl)methyl)-6,7-dihydro-5H-pyrrolo[2,1-c][1,2,4]triazol-6-yl)phenol], the IC50 turned out to be 5.76 nM.

On to `CC1(c2nnc3n2C[C@H](c2c(O)ccc(Cl)c2Cl)C3)CCOC1` (single isomer, unassigned) [Example 64], for which the IC50 was 42.8 nM.

The compound `Oc1ccc(Cl)c(Cl)c1C1Cc2nnc(C(F)F)n2C1` (centres unmarked) [Example 25, 3,4-Dichloro-2-(3-(difluoromethyl)-6,7-dihydro-5H-pyrrolo[2,1-c][1,2,4]triazol-6-yl)phenol] registered an IC50 of 11.1 nM.

For `OCCn1cc(-c2nnc3n2C[C@H](c2c(O)ccc(Cl)c2Cl)C3)cn1` [Example 44, (S)-3,4-Dichloro-2-(3-(1-(2-hydroxyethyl)-1H-pyrazol-4-yl)-6,7-dihydro-5H-pyrrolo[2,1-c][1,2,4]triazol-6-yl)phenol], 8.11 nM corresponded to half-maximal inhibition (IC50).

As for `O=C(c1nnc2n1CC(c1c(O)ccc(Cl)c1Cl)C2)N1CCNCC1` (centres unmarked) [Example 13, (6-(2,3-Dichloro-6-hydroxyphenyl)-6,7-dihydro-5H-pyrrolo[2,1-c][1,2,4]triazol-3-yl)(piperazin-1-yl)methanone], the IC50 was 5.09 nM.

`CC1(C)CC(c2nnc3n2CC(c2c(O)ccc(Cl)c2Cl)C3)CC(C)(C)N1` (centres unmarked) [Example 88, 3,4-Dichloro-2-(3-(2,2,6,6-tetramethylpiperidin-4-yl)-6,7-dihydro-5H-pyrrolo[2,1-c][1,2,4]triazol-6-yl)phenol] yielded an IC50 of 58.6 nM.

Turning to `Nc1cc(-c2nnc3n2C[C@H](c2c(O)ccc(Cl)c2Cl)C3)ccn1` [Example 43, (S)-2-(3-(2-Aminopyridin-4-yl)-6,7-dihydro-5H-pyrrolo[2,1-c][1,2,4]triazol-6-yl)-3,4-dichlorophenol], it took 19.7 nM to reach half-maximal inhibition (IC50).

Turning to `CC(=O)N1CCC(c2nnc3n2C[C@H](c2c(O)ccc(Cl)c2Cl)C3)CC1` [Example 37, (S)-1-(4-(6-(2,3-Dichloro-6-hydroxyphenyl)-6,7-dihydro-5H-pyrrolo[2,1-c][1,2,4]triazol-3-yl)piperidin-1-yl)ethan-1-one], 12.7 nM corresponded to half-maximal inhibition (IC50).

`Oc1ccc(Cl)c(Cl)c1C1Cc2nnc(N3CCOCC3)n2C1` (centres unmarked) [Example 101, 3,4-Dichloro-2-(3-morpholino-6,7-dihydro-5H-pyrrolo[2,1-c][1,2,4]triazol-6-yl)phenol] had an IC50 of 9.8 nM.

Compound `Cc1cc(-c2nnc3n2C[C@H](c2c(O)ccc(Cl)c2Cl)C3)ccn1` [Example 84, (S)-3,4-Dichloro-2-(3-(2-methylpyridin-4-yl)-6,7-dihydro-5H-pyrrolo[2,1-c][1,2,4]triazol-6-yl)phenol] yielded an IC50 of 8.04 nM.

`Oc1ccc(Cl)c(Cl)c1[C@@H]1Cc2nnc(C3CCNCC3)n2C1` [Example 35, (S)-3,4-Dichloro-2-(3-(piperidin-4-yl)-6,7-dihydro-5H-pyrrolo[2,1-c][1,2,4]triazol-6-yl)phenol] returned an IC50 of 3.15 nM.

Turning to `Oc1ccc(Cl)c(Cl)c1C1Cc2nnc(C3CCN(C4CCCCC4)CC3)n2C1` (single isomer, unassigned) [Example 79], it took 14.8 nM to reach half-maximal inhibition (IC50).

Consider `Oc1ccc(Cl)c(Cl)c1[C@@H]1Cc2nnc([C@H]3C[C@@H]4CC[C@H]3O4)n2C1` [Example 62, 2-((S)-3-((1R,2R,4S)-7-Oxabicyclo[2.2.1]heptan-2-yl)-6,7-dihydro-5H-pyrrolo[2,1-c][1,2,4]triazol-6-yl)-3,4-dichlorophenol], for which the IC50 stood at 16.4 nM.

For the compound `Oc1ccc(Cl)c(Cl)c1[C@@H]1Cc2nnc(C3CNC3)n2C1` [Example 45, (S)-2-(3-(Azetidin-3-yl)-6,7-dihydro-5H-pyrrolo[2,1-c][1,2,4]triazol-6-yl)-3,4-dichlorophenol], the IC50 turned out to be 1.5 nM.

Compound `Oc1ccc(Cl)c(Cl)c1C1Cc2nnc(CC(F)(F)F)n2C1` (centres unmarked) [Example 15, 3,4-Dichloro-2-(3-(2,2,2-trifluoroethyl)-6,7-dihydro-5H-pyrrolo[2,1-c][1,2,4]triazol-6-yl)phenol] came in with an IC50 of 26.8 nM.

The compound `OCCc1nnc2n1C[C@H](c1c(O)ccc(Cl)c1Cl)C2` [Example 32, (S)-3,4-Dichloro-2-(3-(2-hydroxyethyl)-6,7-dihydro-5H-pyrrolo[2,1-c][1,2,4]triazol-6-yl)phenol] returned an IC50 of 13 nM.

With `O=c1n([C@@H]2CCOC2)nc2n1C[C@H](c1c(O)ccc(Cl)c1Cl)C2` [Example 110, (S)-6-(2,3-dichloro-6-hydroxyphenyl)-2-((R)-tetrahydrofuran-3-yl)-2,5,6,7-tetrahydro-3H-pyrrolo[2,1-c][1,2,4]triazol-3-one], the IC50 stood at 20.1 nM.

In the case of `N#Cc1cccc(-c2nnc3n2CC(c2c(O)ccc(Cl)c2Cl)C3)c1` (centres unmarked) [Example 9, 3-(6-(2,3-dichloro-6-hydroxyphenyl)-6,7-dihydro-5H-pyrrolo[2,1-c][1,2,4]triazol-3-yl)benzonitrile], the IC50 worked out at 17.1 nM.

Regarding `CC(C)N1CC[C@@H](c2nnc3n2C[C@H](c2c(O)ccc(Cl)c2Cl)C3)C1` [Example 80, 3,4-Dichloro-2-((S)-3-((R)-1-isopropylpyrrolidin-3-yl)-6,7-dihydro-5H-pyrrolo[2,1-c][1,2,4]triazol-6-yl)phenol], it took 2.14 nM to reach half-maximal inhibition (IC50).

As to `O=c1n(C2CCNCC2)nc2n1CC(c1c(O)ccc(Cl)c1Cl)C2` (centres unmarked) [Example 105, 6-(2,3-Dichloro-6-hydroxyphenyl)-2-(piperidin-4-yl)-2,5,6,7-tetrahydro-3H-pyrrolo[2,1-c][1,2,4]triazol-3-one], the IC50 was 5.93 nM.

For the compound `CC(C)N1CCC(n2nc3n(c2=O)C[C@H](c2c(O)ccc(Cl)c2Cl)C3)CC1` [Example 103, (S)-6-(2,3-dichloro-6-hydroxyphenyl)-2-(1-isopropylpiperidin-4-yl)-2,5,6,7-tetrahydro-3H-pyrrolo[2,1-c][1,2,4]triazol-3-one], inhibition was half-maximal at 7.68 nM (IC50).

The compound `CN1CCC(c2nnc3n2C[C@H](c2c(O)ccc(Cl)c2Cl)C3)C1` (stereo partly drawn) [Example 49, 3,4-Dichloro-2-((6S)-3-(1-methylpyrrolidin-3-yl)-6,7-dihydro-5H-pyrrolo[2,1-c][1,2,4]triazol-6-yl)phenol] displayed an IC50 of 3.64 nM.

In turn, `COC(=O)N1CCC(c2nnc3n2C[C@H](c2c(O)ccc(Cl)c2Cl)C3)C1` (single isomer, unassigned) [Example 50] returned an IC50 of 10.9 nM.

As to `Oc1ccc(Cl)c(Cl)c1[C@@H]1Cc2nnc(C3CCN(C4CCCCC4)CC3)n2C1` [Example 78, (S)-3,4-Dichloro-2-(3-(1-cyclohexylpiperidin-4-yl)-6,7-dihydro-5H-pyrrolo[2,1-c][1,2,4]triazol-6-yl)phenol], it took 12.6 nM to reach half-maximal inhibition (IC50).

`O=C1CC(c2nnc3n2C[C@H](c2c(O)ccc(Cl)c2Cl)C3)CN1` (single isomer, unassigned) [Example 53] yielded an IC50 of 15 nM.

`Oc1ccc(Cl)c(Cl)c1C1Cc2nnc(CN3CCC(O)C3)n2C1` (centres unmarked) [Example 19, 1-((6-(2,3-Dichloro-6-hydroxyphenyl)-6,7-dihydro-5H-pyrrolo[2,1-c][1,2,4]triazol-3-yl)methyl)pyrrolidin-3-ol] displayed a concentration for half-maximal inhibition (IC50) of 46.3 nM.

With `Oc1ccc(Cl)c(Cl)c1C1Cc2nnc(C3CCN(C4CCOCC4)CC3)n2C1` (centres unmarked) [Example 22, 3,4-Dichloro-2-(3-(1-(tetrahydro-2H-pyran-4-yl)piperidin-4-yl)-6,7-dihydro-5H-pyrrolo[2,1-c][1,2,4]triazol-6-yl)phenol], it took 13.6 nM to reach half-maximal inhibition (IC50).

Consider `Oc1ccc(Cl)c(Cl)c1C1Cc2nnc(CN3CCOCC3)n2C1` (centres unmarked) [Example 20, 3,4-Dichloro-2-(3-(morpholinomethyl)-6,7-dihydro-5H-pyrrolo[2,1-c][1,2,4]triazol-6-yl)phenol], for which half-maximal inhibition (IC50) required 35.3 nM.
